Literature values, collected in patent US20210299202A1, “FORMULATION OF C[…]” (CARDINAL ADVISORY LIMITED, priority 2018, published 2021).

Key:
[1] = smoked, pulmonary absorption
[2] = oral ingestion

Compound: CCCCCc1cc(O)c2c(c1)OC(C)(C)[C@@H]1CCC(C)=C[C@@H]21 [THC, delta-9-tetrahydrocannabinol]
- time to peak plasma THC concentration [1]: 6 to 10 min
- time to peak plasma concentration [2]: 2 to 6 h
